From article PMC11823609, “Advancements in the fight against globally distributed OXA-48 carbapenemase: evaluating the new generation of carbapenemase inhibitors” (Antimicrobial Agents and Chemotherapy, 2025)
Converted amounts (≈) assume the structure as drawn. Where two headings read alike, the source gives them in different places.

How the values were obtained:
Assay in all cases: microbe, parasite or virus in culture
E. coli TG1 (OXA-48) = assay type: cell-based, Escherichia coli; details: Escherichia coli
Method: (§1) The MICs of each of the individual compounds (antibiotics or inhibitors) were also determined. The MICs were determined for the E. coli isogenic expressing OXA-48 (and both OXA-48 and CTX-M-14) to assess their activity against the carbapenemase; MICs were also determined for the 18 Enterobacterales clinical isolates in order to evaluate the new inhibitors against also their resistance concomitant mechanisms. The MICs were determined in triplicate experiments, and the EUCAST 13.0 clinical breakpoints were followed (http://www.eucast.org/clinical_breakpoints).
(§2) For comparative evaluation of the activity of each inhibitor alone against the carbapenemase OXA-48, all inhibitors (at 4 mg/L) were tested in the presence of a carbapenem (ertapenem, adequate substrate) and a cephalosporin (ceftazidime, poor substrate) as reporter substrates. This prevented any possible masking effect produced by the different partner antibiotics. These assays were also performed with isogenic transformants and clinical isolates.

[1] = system: E. coli HB4 ΔompC/F (CTX-M-14 + OXA-48); assay type: cell-based, Escherichia coli; details: for MIC: Escherichia coli; for decrease of ertapenem MIC with BLI: E. coli HB4 coproducing CTX-M-14 and OXA-48, BLI 4 mg/L
From the text: (§3) The E. coli HB4 strain was used to gain a more complete perspective, by evaluating the involvement in resistance of a low permeability background with the carbapenemase OXA-48, as well as coproduction of an ESBL and the carbapenemase; thus, the ESBL CTX-M-14 and OXA-48 were cloned together and separately into E. coli HB4. The characteristics of these strains and transformants are summarized in Table S1, and the cloning procedures are outlined in the supplemental methods.
as §1, §2

[2] = system: E. coli HB4 ΔompC/F (OXA-48); assay type: cell-based, Escherichia coli; details: Escherichia coli
From the text: as §3, §1, §2

E. coli TG1 = assay type: cell-based; details: Escherichia coli, β-lactamase inhibitor alone
Method: as §1, §2

[3] = system: K. pneumoniae strain 23 (MLST 392, ESBL); assay type: cell-based; details: Klebsiella pneumoniae
Method: (§4) The efficacy of these new BLIs was also evaluated against 18 genetically diverse WGS-characterized collection of OXA-48-positive Enterobacterales recovered as part of the Carbapenem-resistant Enterobacterales Genome Database Project (https://genomes.cnag.cat/incredble) listed in Table S2 ([13]). Combinations of clinical isolates (five pairs of Klebsiella pneumoniae, two pairs of Enterobacter cloacae, and two pairs of E. coli) were chosen for analysis: (i) nine strains carrying ESBLs; and (ii) nine strains (genetically closer available strains) without ESBLs.
as §1, §2

[4] = system: K. pneumoniae strain 194 (MLST 392, No ESBL); assay type: cell-based; details: Klebsiella pneumoniae; K. pneumoniae 194; β-lactamase inhibitor alone; read-out: MIC
Method: as §4, §1, §2

[5] = system: E. coli strain 177 (MLST 131, ESBL); assay type: cell-based; details: Escherichia coli
Method: as §4, §1, §2

[6] = system: E. cloacae strain 272 (MLST 78, ESBL); assay type: cell-based; details: Enterobacter cloacae
Method: as §4, §1, §2

[7] = system: K. pneumoniae strain 237 (MLST 147, No ESBL); assay type: cell-based; details: Klebsiella pneumoniae; K. pneumoniae 237; β-lactamase inhibitor alone; read-out: MIC
Method: as §4, §1, §2

[8] = system: K. pneumoniae strain 238 (MLST 15, ESBL); assay type: cell-based; details: Klebsiella pneumoniae
Method: as §4, §1, §2

[9] = system: K. pneumoniae strain 125 (MLST 307, ESBL); assay type: cell-based; details: Klebsiella pneumoniae
Method: as §4, §1, §2

[10] = system: K. pneumoniae strain 71 (MLST 15, No ESBL); assay type: cell-based; details: Klebsiella pneumoniae; K. pneumoniae 71; β-lactamase inhibitor alone; read-out: MIC
Method: as §4, §1, §2

[11] = system: K. pneumoniae strain 413 (MLST 147, ESBL); assay type: cell-based; details: Klebsiella pneumoniae
Method: as §4, §1, §2

[12] = system: E. cloacae strain 231 (MLST 171, No ESBL); assay type: cell-based; details: Enterobacter cloacae
Method: as §4, §1, §2

[13] = system: E. cloacae strain 281 (MLST 78, No ESBL); assay type: cell-based; details: Enterobacter cloacae
Method: as §4, §1, §2

[14] = system: K. pneumoniae strain 19 (MLST 11, ESBL); assay type: cell-based; details: Klebsiella pneumoniae
Method: as §4, §1, §2

[15] = system: K. pneumoniae strain 170 (MLST 307, No ESBL); assay type: cell-based; details: Klebsiella pneumoniae; K. pneumoniae 170; β-lactamase inhibitor alone; read-out: MIC
Method: as §4, §1, §2

[16] = system: E. coli strain 103 (MLST 10, ESBL); assay type: cell-based; details: Escherichia coli
Method: as §4, §1, §2

[17] = system: E. cloacae strain 235 (MLST 171, ESBL); assay type: cell-based; details: Enterobacter cloacae
Method: as §4, §1, §2

[18] = system: E. coli strain 224 (MLST 127, No ESBL); assay type: cell-based; details: Escherichia coli; E. coli 224; β-lactamase inhibitor alone; read-out: MIC
Method: as §4, §1, §2

[19] = system: E. coli strain 264 (MLST 131, No ESBL); assay type: cell-based; details: Escherichia coli; E. coli 264; β-lactamase inhibitor alone; read-out: MIC
Method: as §4, §1, §2

[20] = system: K. pneumoniae strain 497 (MLST 11, No ESBL); assay type: cell-based; details: Klebsiella pneumoniae; K. pneumoniae 497; β-lactamase inhibitor alone; read-out: MIC
Method: as §4, §1, §2

[21] = E. cloacae 231, β-lactamase inhibitor alone, read-out: MIC
[22] = E. cloacae 281, β-lactamase inhibitor alone, read-out: MIC

Row | Compound | MIC (E. coli TG1 (OXA-48)) [µg/mL] | MIC [1] [µg/mL] | MIC [2] [µg/mL] | MIC (E. coli TG1) [µg/mL] | MIC [3] [µg/mL] | MIC [4] [µg/mL] | MIC [5] [µg/mL] | MIC [6] [µg/mL] | MIC [7] [µg/mL] | MIC [8] [µg/mL] | MIC [9] [µg/mL] | MIC [10] [µg/mL] | MIC [11] [µg/mL] | MIC [14] [µg/mL] | MIC [15] [µg/mL] | MIC [16] [µg/mL] | MIC [17] [µg/mL] | MIC [18] [µg/mL] | MIC [19] [µg/mL] | MIC [20] [µg/mL] | further results
1 | NCCONC(=O)[C@@H]1CC[C@@H]2CN1C(=O)N2OS(=O)(=O)O [Nacubactam, nacubactam] | 2 (≈ 6.17 µM) | 2 (≈ 6.17 µM) | 2 (≈ 6.17 µM) | 2 (≈ 6.17 µM) | 2 | 2 | 8 | 4 | 1 | 16 | ≥ 128 | 16 | ≥ 128 | ≥ 128 | 4 | 2 | 8 | 8 | 1 | ≥ 128 | MIC [12, 21]: 1 µg/mL; MIC [13, 22]: 4 µg/mL
2 | O=C(O)C[C@@H]1CC[C@H](NC(=O)Cc2cccs2)B(O)O1 [Vaborbactam, vaborbactam] | ≥ 128 | ≥ 128 | ≥ 128 | ≥ 128 | ≥ 128 | ≥ 128 | ≥ 128 | ≥ 128 | ≥ 128 | ≥ 128 | ≥ 128 | ≥ 128 | ≥ 128 | ≥ 128 | ≥ 128 | ≥ 128 | ≥ 128 | ≥ 128 | ≥ 128 | ≥ 128 | MIC [12, 21]: ≥ 128 µg/mL; MIC [13, 22]: ≥ 128 µg/mL
3 | O=C(O)c1c(F)ccc2c1OB(O)[C@@H]1C[C@H]21 [Xeruborbactam, xeruborbactam] | 32 (≈ 144 µM) | 16 (≈ 72.1 µM) | 16 (≈ 72.1 µM) | 32 (≈ 144 µM) | 32 | 32 | 64 | 32 | 64 | 64 | 32 | 32 | 64 | 32 | 32 | 64 | ≥ 128 | 32 | 32 | 64 | decrease of ertapenem MIC with BLI [1]: 256 fold; MIC [12, 21]: 32 µg/mL; MIC [13, 22]: 32 µg/mL
4 | CC1=C[C@@H]2CN(C(=O)N2OS(=O)(=O)O)[C@@H]1C(N)=O [Durlobactam, durlobactam] | 0.12 (≈ 0.433 µM) | 1 (≈ 3.61 µM) | 1 (≈ 3.61 µM) | 0.12 (≈ 0.433 µM) | 0.5 | 1 | 2 | 1 | 0.5 | 0.5 | 2 | 2 | 4 | 2 | 0.5 | 0.25 | 4 | 0.25 | 0.25 | 2 | MIC [12, 21]: 1 µg/mL; MIC [13, 22]: 4 µg/mL
5 | NCCN[C@H]1CC[C@H](CC(=O)N[C@H]2Cc3cccc(C(=O)O)c3OB2O)CC1 [Taniborbactam, taniborbactam] | ≥ 128 | ≥ 128 | ≥ 128 | ≥ 128 | ≥ 128 | ≥ 128 | ≥ 128 | ≥ 128 | ≥ 128 | ≥ 128 | ≥ 128 | ≥ 128 | ≥ 128 | ≥ 128 | ≥ 128 | ≥ 128 | ≥ 128 | ≥ 128 | ≥ 128 | ≥ 128 | decrease of ertapenem MIC with BLI [1]: 8 fold; MIC [12]: ≥ 128 µg/mL; MIC [13]: ≥ 128 µg/mL
